Experimental data: ChEMBL document CHEMBL1201862, “PubChem BioAssay data set” (2004)
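Cultured in 96-well plates, cells were exposed to test compound for 48 hours across five concentrations. GI50 = concentration required for 50% inhibition of growth.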 Active and inactive are the calls of the source. No stated cut-off is given here; in the data, active = GI50 up to about 1.1 µM and inactive = higher.

Key:
Experiment in all cases: inhibition of tumour cell growth, NCI panel, 48 h
DLD-1 = tested on: DLD-1
DMS-114 = tested on: DMS-114
DMS-273 = tested on: DMS-273
HOP-18 = tested on: HOP-18
KM-20L2 = tested on: KM-20L2
LXFL 529 = tested on: LXFL 529
M19-MEL = tested on: M19-MEL
RXF 631 = tested on: RXF 631
XF498 = tested on: XF498

Measured: GI50

O=S(=O)(O)c1ccc(/N=N/c2nc(C(F)(F)F)c(C(F)(F)F)[nH]2)cc1
inactive: DLD-1 43.5 µM | DMS-114 16.8 µM | DMS-273 > 100 µM | HOP-18 25.5 µM | KM-20L2 76.7 µM | LXFL 529 87.3 µM | M19-MEL 39.2 µM | RXF 631 30.8 µM | XF498 17.2 µM

O=C1C=C(Br)C(=O)C(Br)=C1
inactive: DLD-1 > 96.6 µM | DMS-114 > 72.4 µM | DMS-273 > 100 µM | HOP-18 > 100 µM | KM-20L2 > 100 µM | LXFL 529 54.5 µM | M19-MEL > 53.5 µM | RXF 631 > 100 µM | XF498 > 100 µM

CN1S(=O)(=O)N(C)P12(N=P(CP(=NP13(N(C)S(=O)(=O)N1C)N(C)S(=O)(=O)N3C)(c1ccccc1)c1ccccc1)(c1ccccc1)c1ccccc1)N(C)S(=O)(=O)N2C
inactive: DLD-1 > 100 µM | DMS-114 > 100 µM | DMS-273 > 100 µM | HOP-18 > 100 µM | KM-20L2 > 100 µM | LXFL 529 > 100 µM | M19-MEL > 100 µM | RXF 631 > 100 µM | XF498 > 100 µM

COc1cccc(OC)c1/C=N\N1C(=O)c2ccccc2C1=O
inactive: DLD-1 49 µM | DMS-114 31.6 µM | DMS-273 21.1 µM | HOP-18 > 100 µM | KM-20L2 19.2 µM | LXFL 529 40.7 µM | M19-MEL 48.4 µM | RXF 631 29.4 µM | XF498 28.6 µM
